Laboratory results from patent US6949542B2, “Dihydro-benzo[b][1,4]diazepin-2-one derivatives” (Hoffman-La Roche Inc., priority 2002, dated 2005).
Read-outs that look alike come from different tables or passages of the source.

How the values were obtained:
[1] = molecular target: T1, rat mGlu2 receptor (Rattus norvegicus, UniProt P31421); assay: [3H]-LY354740 binding on mGlu2 transfected CHO cell membranes
T1 construct: expressed in transfected cells; vector pcD1mGR2
Method: [^3H]-LY354740 Binding on mGlu2 Transfected CHO Cell Membranes
Transfection and Cell Culture
The cells were maintained in Dulbecco's Modified Eagle medium with reduced L-glutamine (2 mM final concentration) and 10% dialysed foetal calf serum from Gibco BRL (Basel, Switzerland).
Cells, cultured as above, were harvested and washed three times with cold PBS and frozen at −80° C. The pellet was resuspended in cold 20 mM HEPES-NaOH buffer containing 10 mM EDTA (pH 7.4), and homogenised with a polytron (Kinematica, AG, Littau, Switzerland) for 10 s at 10 000 rpm. After centrifugation for 30 min. at 4° C., the pellet was washed once with the same buffer, and once with cold 20 mM HEPES-NaOH buffer containing 0.1 mM EDTA, (pH 7.4). Protein content was measured using the Pierce method (Socochim, Lausanne, Switzerland) using bovine serum albumin as standard.
After thawing, the membranes were resuspended in cold 50 mM Tris-HCl buffer containing 2 mM MgCl2 and 2 mM CaCl2, (pH 7) (binding buffer). The final concentration of the membranes in the assays was 25 μg protein/ml. Inhibition experiments were performed with membranes incubated with 10 nM [^3H]-LY354740 at room temperature, for 1 hour, in presence of various concentrations of the compound to be tested. Following the incubations, membranes were filtered onto Whatmann GF/C glass fiber filters and washed 5 times with cold binding buffer. Non specific binding was measured in the presence of 10 μM DCG IV. After transfer of the filters into plastic vials containing 10 ml of Ultima-gold scintillation fluid (Packard, Zürich, Switzerland), the radioactivity was measured by liquid scintillation in a Tri-Carb 2500 TR counter (Packard, Zürich, Switzerland).
The inhibition curves were fitted with a four parameter logistic equation giving IC50 values, and Hill coefficients.

[2] = inhibition of 10 nM [3H]-LY354740 binding, mGlu2 transfected CHO cell membranes, room temperature, 1 hour, read-out: Ki mGlu2

T1 sequence (P31421 19-872): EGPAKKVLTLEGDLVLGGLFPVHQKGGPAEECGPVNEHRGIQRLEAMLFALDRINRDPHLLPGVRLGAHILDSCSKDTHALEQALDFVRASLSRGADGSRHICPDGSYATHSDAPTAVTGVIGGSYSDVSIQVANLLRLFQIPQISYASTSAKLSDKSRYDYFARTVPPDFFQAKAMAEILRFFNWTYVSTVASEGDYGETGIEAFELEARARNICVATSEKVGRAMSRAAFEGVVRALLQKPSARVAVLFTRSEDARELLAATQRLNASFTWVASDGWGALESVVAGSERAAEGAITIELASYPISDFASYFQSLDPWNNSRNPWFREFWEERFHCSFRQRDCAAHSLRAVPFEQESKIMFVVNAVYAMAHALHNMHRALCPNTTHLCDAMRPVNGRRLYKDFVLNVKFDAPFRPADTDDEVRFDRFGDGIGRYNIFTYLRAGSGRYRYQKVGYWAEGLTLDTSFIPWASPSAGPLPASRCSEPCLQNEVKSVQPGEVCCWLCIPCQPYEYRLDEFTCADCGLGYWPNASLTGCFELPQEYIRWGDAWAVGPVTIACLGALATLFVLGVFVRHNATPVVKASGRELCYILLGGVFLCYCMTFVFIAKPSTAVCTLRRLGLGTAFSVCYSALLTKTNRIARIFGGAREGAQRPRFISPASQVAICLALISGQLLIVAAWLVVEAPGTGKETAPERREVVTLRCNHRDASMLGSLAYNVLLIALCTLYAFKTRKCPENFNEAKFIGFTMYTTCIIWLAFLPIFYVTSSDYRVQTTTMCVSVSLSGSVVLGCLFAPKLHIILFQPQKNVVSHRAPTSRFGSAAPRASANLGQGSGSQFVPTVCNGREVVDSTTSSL

Row | SMILES | Ki [1, 2] [nM] | melting point | Ki [1] [nM]
1 | CC(C)CNc1cc2c(cc1C(F)(F)F)NC(=O)CC(c1cccc(-c3ccncc3)c1)=N2 [Example 63, 7-Isobutylamino-4-(3-pyridin-4-yl-phenyl)-8-trifluoromethyl-1,3-dihydro-benzo[b][1,4]diazepin-2-one] | 19 | 198 °C | 
2 | O=C1CC(c2cccc(-c3ccc[n+]([O-])c3)c2)=Nc2cc(OCC(F)(F)F)c(C(F)(F)F)cc2N1 [Example 357, 4-[3-(1-Oxy-pyridin-3-yl)-phenyl]-7-(2,2,2-trifluoro-ethoxy)-8-trifluoromethyl-1,3-dihydro-benzo[b][1,4]diazepin-2-one] | 6.1 | 226 °C | 
3 | Cc1cncc(-c2cccc(C3=Nc4cc(C)c(C(F)(F)F)cc4NC(=O)C3)c2)n1 [Example 129, 7-Methyl-4-[3-(6-methyl-pyrazin-2-yl)-phenyl]-8-trifluoromethyl-1,3-dihydro-benzo[b][1,4]diazepin-2-one] | 3.1 | 233 °C | 
4 | O=C1CC(c2cccc(-c3cncnc3)c2)=Nc2cc(Cl)c(Cl)cc2N1 [Example 97, 7,8-Dichloro-4-(3-pyrimidin-5-yl-phenyl)-1,3-dihydro-benzo[b][1,4]diazepin-2-one] |  | 272 °C | 10.7
5 | Cc1ccc(-c2cccc(C3=Nc4ccc(-c5ccccc5F)cc4NC(=O)C3)c2)nn1 [Example 16, 8-(2-Fluoro-phenyl)-4-[3-(6-methyl-pyridazin-3-yl)-phenyl]-1,3-dihydro-benzo[b][1,4]diazepin-2-one] | 16.5 | 225 °C | 
6 | Cc1ccc(-c2cccc(C3=Nc4cc(N(C)C)c(C(F)(F)F)cc4NC(=O)C3)c2)c(C)n1 [Example 47, 7-Dimethylamino-4-[3-(2,6-dimethyl-pyridin-3-yl)-phenyl]-8-trifluoromethyl-1,3-dihydro-benzo[b][1,4]diazepin-2-one] | 22.5 | 187 to 189 °C | 
7 | Cc1cc2c(cc1C(F)(F)F)N=C(c1cccc(-c3cccnc3)c1)CC(=O)N2 [Example 25, 8-Methyl-4-(3-pyridin-3-yl-phenyl)-7-trifluoromethyl-1,3-dihydro-benzo[b][1,4]diazepin-2-one] | 2.8 | 221 °C | 
8 | Cc1cc(-c2cccc(C3=Nc4cc(OCC(F)(F)F)c(C(F)(F)F)cc4NC(=O)C3)c2)c(C)cn1 [Example 138, 4-[3-(2,5-Dimethyl-pyridin-4-yl)-phenyl]-7-(2,2,2-trifluoro-ethoxy)-8-trifluoromethyl-1,3-dihydro-benzo[b][1,4]diazepin-2-one] | 3.6 | 202 °C | 
9 | O=C1CC(c2cccc(-c3cccnc3)c2)=Nc2ccc(Cl)cc2N1 [Example 28, 8-Chloro-4-(3-pyridin-3-yl-phenyl)-1,3-dihydro-benzo[b][1,4]diazepin-2-one] | 2 | 232 °C | 
10 | Cc1cc(-c2cccc(C3=Nc4cc(C)c(C(F)(F)F)cc4NC(=O)C3)c2)nc(NCCO)n1 [Example 322, 4-{3-[2-(2-Hydroxy-ethylamino)-6-methyl-pyrimidin-4-yl]-phenyl}-7-methyl-8-trifluoromethyl-1,3-dihydro-benzo[b][1,4]diazepin-2-one] | 4 | 228 to 230 °C | 
11 | COCCOc1cc2c(cc1C(F)(F)F)NC(=O)CC(c1cccc(-c3ccnc(C#N)c3)c1)=N2 [Example 209, 4-{3-[8-(2-Methoxy-ethoxy)-4-oxo-7-trifluoromethyl-4,5-dihydro-3H-benzo[b][1,4]diazepin-2-yl]-phenyl}-pyridine-2-carbonitrile] | 12.8 | 212 to 213 °C | 
12 | O=C1CC(c2cccc(-c3cncnc3)c2)=Nc2ccc(-c3ccccc3F)cc2N1 [Example 105, 8-(2-Fluoro-phenyl)-4-(3-pyrimidin-5-yl-phenyl)-1,3-dihydro-benzo[b][1,4]diazepin-2-one] | 6.2 | 223 °C | 
13 | CCc1cnc(C)cc1-c1cccc(C2=Nc3cc(C)c(Cl)cc3NC(=O)C2)c1 [Example 147, 8-Chloro-4-[3-(5-ethyl-2-methyl-pyridin-4-yl)-phenyl]-7-methyl-1,3-dihydro-benzo[b][1,4]diazepin-2-one] | 4.5 | 195 °C | 
14 | Cc1cc(-c2cccc(C3=Nc4cc(C)c(Cl)cc4NC(=O)C3)c2)nc(N2CCOCC2)n1 [Example 327, 8-Chloro-7-methyl-4-[3-(6-methyl-2-morpholin-4-yl-pyrimidin-4-yl)-phenyl]-1,3-dihydro-benzo[b][1,4]diazepin-2-one] | 12 | 252 to 256 °C | 
15 | O=C1CC(c2cccc(-c3ccccn3)c2)=Nc2cc(Cl)c(Cl)cc2N1 [Example 5, 7,8-Dichloro-4-(3-pyridin-2-yl-phenyl)-1,3-dihydro-benzo[b][1,4]diazepin-2-one] | 23.5 | 239 °C | 
16 | O=C1CC(c2cccc(-c3cnccn3)c2)=Nc2ccc(-n3cccc3)cc2N1 [Example 109, 4-(3-Pyrazin-2-yl-phenyl)-8-pyrrol-1-yl-1,3-dihydro-benzo[b][1,4]diazepin-2-one] | 5.5 | 214 °C | 
17 | CCOc1cc2c(cc1C(F)(F)F)NC(=O)CC(c1cccc(-c3cc[n+]([O-])c(C)c3)c1)=N2 [Example 359, 7-Ethoxy-4-[3-(2-methyl-1-oxy-pyridin-4-yl)-phenyl]-8-trifluoromethyl-1,3-dihydro-benzo[b][1,4]diazepin-2-one] | 26.5 | 227 °C | 
18 | Cc1cc2c(cc1Cl)NC(=O)CC(c1cccc(-c3ccnnc3)c1)=N2 [Example 48, 8-Chloro-7-methyl-4-(3-pyridazin-4-yl-phenyl)-1,3-dihydro-benzo[b][1,4]diazepin-2-one] | 9.35 | 240 °C (dec.) | 
19 | COc1ccc(-c2cccc(C3=Nc4ccc(-c5ccccc5F)cc4NC(=O)C3)c2)nn1 [Example 41, 8-(2-Fluoro-phenyl)-4-[3-(6-methoxy-pyridazin-3-yl)-phenyl]-1,3-dihydro-benzo[b][1,4]diazepin-2-one] | 24.5 | 220 °C | 
20 | N#Cc1cc(-c2cccc(C3=Nc4ccc(C(F)(F)F)cc4NC(=O)C3)c2)ccn1 [Example 198, 4-[3-(4-Oxo-7-trifluoromethyl-4,5-dihydro-3H-benzo[b][1,4]diazepin-2-yl)-phenyl]-pyridine-2-carbonitrile] | 23.7 | 239 to 240 °C | 
21 | Cc1cc(-c2cccc(C3=Nc4cc(C)c(Cl)cc4NC(=O)C3)c2)ccn1 [Example 73, 8-Chloro-7-methyl-4-[3-(2-methyl-pyridin-4-yl)-phenyl]-1,3-dihydro-benzo[b][1,4]diazepin-2-one] | 2.7 |  | 
22 | O=C1CC(c2cccc(-c3cccnc3)c2)=Nc2cc(OCC(F)(F)F)ccc2N1 [Example 57, 4-(3-Pyridin-3-yl-phenyl)-7-(2,2,2-trifluoro-ethoxy)-1,3-dihydro-benzo[b][1,4]diazepin-2-one] | 6.2 |  | 
23 | Cc1cc2c(cc1Cl)NC(=O)CC(c1cccc(-c3ccncc3)c1)=N2 [Example 67, 8-Chloro-7-methyl-4-(3-pyridin-4-yl-phenyl)-1,3-dihydro-benzo[b][1,4]diazepin-2-one] | 1.55 |  | 
24 | CN(C)c1cc2c(cc1C(F)(F)F)NC(=O)CC(c1cccc(-c3cccnc3)c1)=N2 [Example 3, 7-Dimethylamino-4-(3-pyridin-3-yl-phenyl)-8-trifluoromethyl-1,3-dihydro-benzo[b][1,4]diazepin-2-one] | 2.3 |  | 
